ChEMBL document CHEMBL1126226, “The discovery of a new structural class of potent orally active leukotriene D4 antagonists” (Bioorg Med Chem Lett, 1992)

Tests used:
[1] = Plasma clearance was estimated from the AUC after 5 mg/kg intravenous dosing in rats; format: ADME, organism-based; parameters: dose 5 mg/kg, route intravenous; conditions: rat
[2] = target: T1, Cysteinyl leukotriene receptor 1 (Cavia porcellus, UniProt Q2NNR5); assay: Inhibitory concentration against [3H]Leukotriene D4 binding to guinea-pig lung membranes was determined; format: tissue-based, Membrane
T1 sequence (Q2NNR5 whole entry): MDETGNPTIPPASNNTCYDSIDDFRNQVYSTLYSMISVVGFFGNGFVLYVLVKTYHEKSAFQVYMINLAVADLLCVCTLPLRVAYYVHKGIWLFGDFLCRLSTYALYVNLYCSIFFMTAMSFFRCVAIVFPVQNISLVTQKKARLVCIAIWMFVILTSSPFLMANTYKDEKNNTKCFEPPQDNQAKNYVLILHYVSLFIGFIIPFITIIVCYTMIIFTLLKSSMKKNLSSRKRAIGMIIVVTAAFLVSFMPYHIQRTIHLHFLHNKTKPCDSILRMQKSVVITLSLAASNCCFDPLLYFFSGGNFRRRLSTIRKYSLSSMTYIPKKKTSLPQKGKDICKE

[3] = target: T1, Cysteinyl leukotriene receptor 1; assay: Inhibitory concentration against [3H]Leukotriene D4 binding to guinea-pig lung membranes was determined; experiment 1; format: tissue-based, Membrane
[4] = target: T1, Cysteinyl leukotriene receptor 1; assay: Inhibitory concentration against [3H]Leukotriene D4 binding to guinea-pig lung membranes was determined; experiment 2; format: tissue-based, Membrane
Mus musculus [5] = assay: The compound was tested for average percentage increase of fatty acyl Co-A oxidase activity after 4 days of dosing in mice at 400 mg/kg peroral administration; format: functional; conditions: route oral
[6] = target: T1, Cysteinyl leukotriene receptor 1; assay: Inhibition of Leukotriene D4 induced contraction of guinea-pig trachea was determined; format: functional, tissue-based; conditions: read-out: pA2 (converted)
Rattus norvegicus [7] = assay: Percent inhibition of Antigen induced dyspnea in hyperactive rats by the compound at 0.5 mg/kg concentration was determined; format: functional
[8] = target: T1, Cysteinyl leukotriene receptor 1; assay: Inhibitory concentration against [3H]Leukotriene D4 binding to guinea-pig lung membranes was determined (Experiment 2); format: tissue-based, Membrane
[9] = target: T1, Cysteinyl leukotriene receptor 1; assay: Inhibitory concentration against [3H]Leukotriene D4 binding to guinea-pig lung membranes was determined (Experiment 1); format: tissue-based, Membrane
Mus musculus [10] = assay: The compound was tested for average percentage increase of fatty acyl Co-A oxidase activity after 4 days of dosing mice at 400 mg/kg peroral administration; format: functional; conditions: route oral
Rattus norvegicus [11] = assay: Percent inhibition of Antigen induced dyspnea in hyperractive rats by the compound at 0.5 mg/kg concentration was determined after peroral administration, 2 hr pretreatment; format: functional; conditions: route oral
[12] = The apparent total plasma clearance in monkey; format: ADME, organism-based; conditions: cercopithecidae
Monkey [13] = assay: Inhibition of Leukotriene D4 induced bronchoconstriction in squirrel monkey, 4 hr pretreatment at 0.1 mg/kg peroral administration; format: functional; conditions: in Primates, route oral
Cavia porcellus = assay: Effective dose in guinea pig on intravenous administration; format: functional
Mus musculus [14] = assay: The compound was tested for average percentage increase of fatty acyl Co-A oxidase activity after 4 days of dosing in mice at 100 mg/kg peroral administration; format: functional; conditions: route oral
Monkey [15] = assay: Inhibition of Leukotriene D4 induced bronchoconstriction in squirrel monkey, 4 hr pretreatment, 0.1 mg/kg peroral administration; format: functional; conditions: in Primates, route oral

Row | SMILES | clearance [1] | IC50 [2] | IC50 [3] | IC50 [4] | also measured
1 | O=C([O-])CCSC(CCc1ccccc1-c1nc[nH]n1)c1cccc(OCc2ccc3ccc(Cl)cc3n2)c1.[Na+] (stereo not drawn) | 64 mL/min/kg | 0.36 nM |  |  | 
2 | CC(CSC(CCc1ccccc1C(C)(C)O)c1cccc(OCc2ccc3ccc(Cl)cc3n2)c1)C(=O)[O-].[Na+] (stereo not drawn) | 12 mL/min/kg |  | 0.5 nM | 0.85 nM | 
3 | CCC(CSC(CCc1ccccc1C(N)=O)c1cccc(OCc2ccc3ccc(Cl)cc3n2)c1)C(=O)[O-].[Na+] (stereo not drawn) | 58 mL/min/kg | 0.47 nM |  |  | 
4 | CC(CSC(CCc1ccccc1C(=O)N(C)C)c1cccc(OCc2ccc3ccc(Cl)cc3n2)c1)C(=O)O (stereo not drawn) |  | 0.52 nM |  |  | 
5 | CCC(CSC(CCc1ccccc1-c1nnnn1C)c1cccc(OCc2ccc3ccc(Cl)cc3n2)c1)C(=O)[O-].[Na+] (stereo not drawn) | 18 mL/min/kg | 0.4 nM |  |  | 
6 | NS(=O)(=O)c1ccccc1CCC(SCCC(=O)[O-])c1cccc(OCc2ccc3ccc(Cl)cc3n2)c1.[Na+] (stereo not drawn) | 106 mL/min/kg |  | 0.4 nM | 0.6 nM | 
7 | C[C@H](CS[C@H](CCc1ccccc1C(C)(C)O)c1cccc(OCc2ccc3ccc(Cl)cc3n2)c1)C(=O)[O-].[Na+] |  |  | 2 nM | 4 nM | FACO Activity (Mus musculus [5]): 128%; Kb [6]: 0.794 nM; inhibition in vivo at 0.5 mg/kg (Rattus norvegicus [7]): 62%
8 | CCC(CSC(CCc1ccccc1S(C)(=O)=O)c1cccc(OCc2ccc3ccc(Cl)cc3n2)c1)C(=O)[O-].[Na+] (stereo not drawn) | 35 mL/min/kg |  | 0.6 nM | 1 nM | 
9 | CC(CSC(CCc1ccccc1[N+](=O)[O-])c1cccc(OCc2ccc3ccc(Cl)cc3n2)c1)C(=O)[O-].[Na+] (stereo not drawn) | 12 mL/min/kg |  | 0.4 nM | 0.49 nM | 
10 | CN(C)C(=O)CCSC(SCCC(=O)O)c1cccc(CCc2ccc3ccc(Cl)cc3n2)c1 (stereo not drawn) |  |  |  |  | IC50 [8]: 36 nM; IC50 [9]: 26 nM
11 | CC(CSC(CCc1ccccc1C(C)C)c1cccc(OCc2ccc3ccc(Cl)cc3n2)c1)C(=O)[O-].[Na+] (stereo not drawn) | 2.2 mL/min/kg | 6.3 nM |  |  | 
12 | O=C([O-])CCSC(CCc1ccccc1)c1cccc(OCc2ccc3ccc(Cl)cc3n2)c1.[Na+] (stereo not drawn) | 2.9 mL/min/kg | 6.5 nM |  |  | 
13 | CC(CCC(SCCC(=O)O)c1cccc(OCc2ccc3ccc(Cl)cc3n2)c1)CC(=O)N(C)C (stereo not drawn) |  | 8.6 nM |  |  | 
14 | CN(C)C(=O)CCSC(SCCC(=O)O)c1cccc(SCc2ccc3ccc(Cl)cc3n2)c1 (stereo not drawn) |  | 75 nM |  |  | 
15 | CC(CCC(SCCC(=O)O)c1cccc(/C=C/c2ccc3ccc(Cl)cc3n2)c1)CC(=O)N(C)C (stereo not drawn) |  | 1.3 nM |  |  | 
16 | CN(C)C(=O)c1ccccc1CCC(SCCC(=O)[O-])c1cccc(OCc2ccc3ccc(Cl)cc3n2)c1.[Na+] (stereo not drawn) | 64 mL/min/kg | 0.95 nM |  |  | 
17 | CS(=O)(=O)Nc1ccccc1CCC(SCCC(=O)[O-])c1cccc(OCc2ccc3ccc(Cl)cc3n2)c1.[Na+] (stereo not drawn) | 131 mL/min/kg |  | 0.56 nM | 0.6 nM | 

Row | SMILES | clearance [1] | IC50 [2] | IC50 [3] | IC50 [4] | also measured
18 | C[C@H](CS[C@@H](CCc1ccccc1C(C)(C)O)c1cccc(OCc2ccc3ccc(Cl)cc3n2)c1)C(=O)[O-].[Na+] |  |  | 17 nM | 20 nM | FACO Activity (Mus musculus [10]): 10%; Kb [6]: 5.01 nM; inhibition in vivo at 0.5 mg/kg (Rattus norvegicus [7]): 47%
19 | C[C@@H](CS[C@H](CCc1ccccc1C(C)(C)O)c1cccc(OCc2ccc3ccc(Cl)cc3n2)c1)C(=O)[O-].[Na+] |  |  | 0.2 nM | 0.3 nM | FACO Activity (Mus musculus [5]): 155%; Kb [6]: 0.398 nM; inhibition in vivo at 0.5 mg/kg (Rattus norvegicus [7]): 63%
20 | CC(CSC(CCc1ccccc1C(=O)N(C)CO)c1cccc(OCc2ccc3ccc(Cl)cc3n2)c1)C(=O)O (stereo not drawn) |  | 3.6 nM |  |  | 
21 | CN(C)C(=O)CCSC(SCCC(=O)O)c1cccc(OCc2ccc3ccc(Cl)cc3n2)c1 (stereo not drawn) |  | 14 nM |  |  | 
22 | C[C@@H](CS[C@@H](CCc1ccccc1C(C)(C)O)c1cccc(OCc2ccc3ccc(Cl)cc3n2)c1)C(=O)[O-].[Na+] |  |  | 5 nM | 7 nM | FACO Activity (Mus musculus [10]): -7%; Kb [6]: 1.58 nM; inhibition in vivo at 0.5 mg/kg (Rattus norvegicus [7]): 46%
23 | CCC(CSC(CCc1ccccc1-c1nn[nH]n1)c1cccc(OCc2ccc3ccc(Cl)cc3n2)c1)C(=O)[O-].[Na+] (stereo not drawn) | 61 mL/min/kg |  | 0.8 nM | 0.5 nM | 
24 | O=C([O-])CCSC(CCc1ccccc1C(=O)N1CCCCC1)c1cccc(OCc2ccc3ccc(Cl)cc3n2)c1.[Na+] (stereo not drawn) | 55 mL/min/kg | 0.6 nM |  |  | 
25 | CCOC(=O)Nc1ccccc1CCC(SCC(CC)C(=O)[O-])c1cccc(CCc2ccc3ccc(Cl)cc3n2)c1.[Na+] (stereo not drawn) | 8.8 mL/min/kg |  | 0.5 nM | 0.6 nM | 
26 | CN(C)C(=O)c1ccccc1CCC(SCCC(=O)O)c1cccc(OCc2ccc3ccc(Cl)cc3n2)c1 (stereo not drawn) |  | 0.95 nM |  |  | 
27 | CCC(CSC(CCc1ccccc1C(=O)O)c1cccc(OCc2ccc3ccc(Cl)cc3n2)c1)C(=O)[O-].[Na+] (stereo not drawn) | 8.8 mL/min/kg |  | 2 nM | 1 nM | 
28 | CCNC(=O)c1ccccc1CCC(SCC(CC)C(=O)[O-])c1cccc(OCc2ccc3ccc(Cl)cc3n2)c1.[Na+] (stereo not drawn) | 106 mL/min/kg | 0.45 nM |  |  | 
29 | CCC(CSC(CCc1ccccc1C#N)c1cccc(CCc2ccc3ccc(Cl)cc3n2)c1)C(=O)[O-].[Na+] (stereo not drawn) | 13 mL/min/kg | 1 nM |  |  | 
30 | CCC(CSC(CCc1ccccc1C(=O)NS(=O)(=O)c1ccccc1C)c1cccc(OCc2ccc3ccc(Cl)cc3n2)c1)C(=O)[O-].[Na+] (stereo not drawn) | 15 mL/min/kg |  | 1.4 nM | 6.5 nM | 
31 | CN(C)C(=O)CCSC(CCc1ccccc1C(=O)O)c1cccc(OCc2ccc3ccc(Cl)cc3n2)c1 (stereo not drawn) |  | 1.9 nM |  |  | inhibition in vivo at 0.5 mg/kg (Rattus norvegicus [11]): 54%; clearance [12]: 15 mL/min/kg
32 | CCC[C@H](CS[C@@H](CCc1ccccc1C(C)(C)O)c1cccc(/C=C/c2ccc3ccc(Cl)cc3n2)c1)C(=O)O [L-695499] |  | 0.9 nM |  |  | Kb [6]: 1.58 nM; inhibition in vivo at 0.1 mg/kg (Monkey [13]): 72%; ED50 (Cavia porcellus): 2 µg/kg; FACO Activity (Mus musculus [14]): 38%
33 | CN(C)C(=O)CCS[C@H](SCCC(=O)O)c1cccc(/C=C/c2ccc3ccc(Cl)cc3n2)c1 [MK-571] |  | 3.9 nM |  |  | inhibition in vivo at 0.1 mg/kg (Monkey [15]): 60%; clearance [12]: 1.2 mL/min/kg; FACO Activity (Mus musculus [5]): 62%; Kb [6]: 1.58 nM; ED50 (Cavia porcellus): 2.8 µg/kg
